Data on eleven molecules can be found in DBAASP.

≈ marks a conversion by molar mass, not a printed value.

Some test systems named below: Escherichia coli B; Pseudomonas aeruginosa; Bacillus subtilis; Staphylococcus aureus; Escherichia coli ML-35; Escherichia coli; Candida albicans.
What all share (assay): ≥ marks a high value that may be exact or a test limit, other limits are often not marked, values filed in µg/mL are converted to µM
The subject of test [1] is Staphylococcus aureus USA 300.
Test [2] has as its system Escherichia coli ATCC 25922.
Test [3] has as its system Pseudomonas aeruginosa PAO1.
In test [4] the test system is Klebsiella pneumoniae ATCC 13883.
Test [5] concerns Candida albicans F7-39/IDE99.
Test [6] concerns Staphylococcus aureus ATCC 25923.
The test system of test [7] is Pseudomonas aeruginosa CMCCB 10104.
Test [8] has as its system Candida albicans ATCC 2002.
For test [9], the system named is Bacillus subtilis ATCC 23857.
The subject of test [10] is Staphylococcus epidermidis ATCC 12228.
Test [11] deals with Staphylococcus aureus ATCC 29213.
In test [12] the test system is Enterococcus faecalis ATCC 29212.
Test [13] concerns Salmonella enterica subsp. enterica serovar Pullorum C79-13.
Test [14] relates to Salmonella enterica subsp. enterica serovar Typhimurium C77-31.

As for `CC(C)C[C@H](NC(=O)[C@H](CC(C)C)NC(=O)CNC(=O)[C@H](CC(C)C)NC(=O)[C@H](CC(C)C)NC(=O)[C@H](CO)NC(=O)[C@H](CC(C)C)NC(=O)[C@H](CC(C)C)NC(=O)[C@H](CO)NC(=O)[C@H](CC(C)C)NC(=O)[C@H](CC(C)C)NC(=O)[C@H](CCCCN)NC(=O)CN)C(N)=O` [GKLLSLLSLLGLL], the MIC (usually the smallest concentration in the dilution series that meets the test's criterion for growth inhibition) in test [1] is 3.1 µM (≈ 4.15 µg/mL); in test [2], over 25 µM; in [3], over 25 µM; in [4], 25 µM (≈ 33.5 µg/mL).

As for `CC(C)C[C@H](NC(=O)[C@H](CC(C)C)NC(=O)[C@H](CCCCN)NC(=O)CNC(=O)[C@H](CC(C)C)NC(=O)[C@H](CC(C)C)NC(=O)[C@H](CO)NC(=O)[C@H](CC(C)C)NC(=O)[C@H](CC(C)C)NC(=O)[C@H](CO)NC(=O)[C@H](C)NC(=O)[C@H](CC(C)C)NC(=O)CN)C(N)=O` [GLASLLSLLGKLL], the MIC in test [1] was 0.78 µM (≈ 1.01 µg/mL); in test [2], over 25 µM; in test [3], over 25 µM; in test [4] it was 25 µM (≈ 32.4 µg/mL).

With `CC(C)C[C@H](NC(=O)[C@H](CC(C)C)NC(=O)[C@H](CCCCN)NC(=O)CNC(=O)[C@H](C)NC(=O)[C@H](CC(C)C)NC(=O)[C@H](CO)NC(=O)[C@H](CC(C)C)NC(=O)[C@H](CC(C)C)NC(=O)[C@H](CO)NC(=O)[C@H](CC(C)C)NC(=O)[C@H](CC(C)C)NC(=O)CN)C(N)=O` [GLLSLLSLAGKLL], the minimal inhibitory concentration (MIC) was found to be 0.78 µM (≈ 1.01 µg/mL) in test [1], 3.1 µM (≈ 4.02 µg/mL) in test [2], 12.5 µM (≈ 16.2 µg/mL) in test [3] and 3.1 µM (≈ 4.02 µg/mL) in [4].

On to `CC[C@H](C)[C@H](NC(=O)[C@H](C)NC(=O)[C@H](C)NC(=O)[C@H](CC(C)C)NC(=O)[C@@H](NC(=O)[C@H](CCCCN)NC(=O)[C@H](CCCNC(=N)N)NC(=O)[C@@H]1CCCN1C(=O)[C@H](CC(C)C)NC(=O)CN)[C@@H](C)CC)C(=O)N[C@@H](C)C(=O)N[C@@H](CCCCN)C(=O)N[C@@H](CCCCN)C(=O)N[C@@H](CCCCN)C(=O)NCC(=O)N[C@@H](CCCCN)C(=O)N[C@@H](C)C(=O)N[C@@H](CCCCN)C(=O)NCC(=O)N1CCC[C@H]1C(=O)N[C@@H](CC(C)C)C(=O)N[C@@H](CCCCN)C(=O)N[C@@H](CC(C)C)C(=O)N[C@H](C(=O)N[C@@H](C)C(=O)N[C@@H](CCCCN)C(=O)N[C@@H](C)C(=O)O)C(C)C` [GLPRKILAAIAKKKGKAKGPLKLVAKA], for which the MIC in the test on Escherichia coli B is at least 100 µM; with Pseudomonas aeruginosa it was over 100 µM; against Bacillus subtilis, 12 µM (≈ 33.2 µg/mL); in test [5], at least 100 µM; against Staphylococcus aureus, over 100 µM.

In the case of `CC[C@H](C)[C@@H]1NC(=O)[C@H](C)NC(=O)[C@@H](NC(=O)[C@H](CC(C)C)NC(=O)[C@@H](NC(=O)[C@H](CCCCN)NC(=O)[C@H](CCCN=C(N)N)NC(=O)[C@@H]2CCCN2C(=O)[C@H](CC(C)C)NC(=O)CN)[C@@H](C)CC)CSSC[C@@H](C(=O)N[C@@H](CCCCN)C(=O)NCC(=O)N2CCC[C@H]2C(=O)N[C@@H](CC(C)C)C(=O)N[C@@H](CCCCN)C(=O)N[C@@H](CC(C)C)C(=O)N[C@H](C(=O)N[C@H]2CSSC[C@@H](C(=O)O)NC(=O)[C@H](CCCCN)NC2=O)C(C)C)NC(=O)[C@H](CCCCN)NC(=O)CNC(=O)[C@H](CCCCN)NC(=O)[C@H](CCCCN)NC(=O)[C@H](CCCCN)NC(=O)[C@H](C)NC1=O` [GLPRKILCAIAKKKGKCKGPLKLVCKC], the MIC against Escherichia coli B was at least 100 µM; against Pseudomonas aeruginosa, over 100 µM; in the test on Bacillus subtilis, 4 µM (≈ 11.6 µg/mL); in test [5], at least 100 µM; in the test on Staphylococcus aureus it was over 100 µM.

As for `CC(C)C[C@H](NC(=O)[C@H](CC(C)C)NC(=O)[C@H](CC(N)=O)NC(=O)[C@H](CCCCN)NC(=O)[C@@H](NC(=O)[C@@H](NC(=O)[C@H](C)NC(=O)[C@H](CC(C)C)NC(=O)[C@@H](NC(=O)CN)C(C)C)[C@@H](C)O)C(C)C)C(=O)N[C@@H](CC(N)=O)C(=O)NCC(=O)N[C@H](C(=O)NCC(=O)N[C@@H](CC(=O)O)C(=O)NCC(=O)N[C@@H](C)C(=O)N[C@@H](C)C(=O)N[C@@H](CCC(N)=O)C(=O)N[C@@H](CO)C(=O)N[C@H](C(=O)N[C@@H](CC(C)C)C(=O)N[C@@H](CCCCN)C(=O)N[C@H](C(=O)N[C@@H](CC(C)C)C(=O)N[C@@H](CO)C(=O)N[C@H]1CSSC[C@@H](C(=O)O)NC(=O)[C@H](CC(=O)O)NC(=O)[C@H](CC(N)=O)NC(=O)[C@H](CO)NC(=O)[C@H](CC(C)C)NC(=O)[C@H](CCCCN)NC1=O)[C@@H](C)O)C(C)C)[C@@H](C)O` [GVLATVKNLLNGTGDGAAQSVLKTLSCKLSNDC], the MIC was 2.4 µM (≈ 7.9 µg/mL) in test [2], 1.22 µM (≈ 4 µg/mL) in test [6], 4.8 µM (≈ 15.8 µg/mL) in [7] and 1.22 µM (≈ 4 µg/mL) in [8].

As for `CC[C@H](C)[C@H](N)C(=O)N[C@@H](CC(C)C)C(=O)NCC(=O)N[C@H](C(=O)N[C@H](C(=O)N[C@@H](CC(C)C)C(=O)NCC(=O)N1CCC[C@H]1C(=O)N[C@@H](CC(C)C)C(=O)N[C@@H](CCCCN)C(=O)NCC(=O)N[C@@H](CC(C)C)C(N)=O)[C@@H](C)CC)[C@@H](C)O` [ILGTILGPLKGL], the MIC in [2] is over 256 µM; in the test on Escherichia coli ML-35, at least 256 µM; in test [9], at least 256 µM; in test [10], over 256 µM; in test [11], over 256 µM.

Regarding `CC[C@H](C)[C@H](N)C(=O)N[C@@H](CC(C)C)C(=O)NCC(=O)N[C@H](C(=O)N[C@H](C(=O)N[C@@H](CC(C)C)C(=O)N1CCC[C@H]1C(=O)N[C@@H](CC(C)C)C(=O)N[C@@H](CC(C)C)C(=O)N[C@@H](CCCCN)C(=O)NCC(=O)N[C@@H](CC(C)C)C(N)=O)[C@@H](C)CC)[C@@H](C)O` [ILGTILPLLKGL], the MIC was over 256 µM in test [2]; at least 256 µM against Escherichia coli ML-35; at least 256 µM in test [9]; over 256 µM in [10]; over 256 µM in test [11].

Take `CC(C)C[C@H](NC(=O)[C@@H](NC(=O)[C@@H](NC(=O)[C@@H](N)CC(C)C)C(C)C)[C@@H](C)O)C(=O)N[C@H](C(=O)N[C@@H](Cc1ccccc1)C(=O)N[C@H](C(=O)O)C(C)C)C(C)C` [LVTLVFV]: the MIC in test [2] is over 128 µM; in test [12], over 128 µM; in test [10], over 128 µM; in test [11], over 128 µM; in test [13] it was at least 128 µM; in test [14], at least 128 µM.

Consider `CSCC[C@H](NC(=O)[C@H](CCC(=O)O)NC(=O)[C@H](CS)NC(=O)[C@H](C)NC(=O)[C@@H](NC(=O)CNC(=O)[C@H](C)NC(=O)[C@@H](NC(=O)[C@H](Cc1ccccc1)NC(=O)[C@@H]1CCCN1C(=O)[C@H](CC(C)C)NC(=O)[C@@H](N)CCC(N)=O)C(C)C)C(C)C)C(=O)N[C@@H](CS)C(=O)N[C@@H](CCC(N)=O)C(=O)N[C@@H](CS)C(=O)N[C@H](C(=O)N[C@@H](Cc1ccc(O)cc1)C(=O)N[C@H]1CSSC[C@@H](C(=O)O)NC(=O)[C@H](CCCCN)NC(=O)[C@H](CCCCN)NC(=O)[C@H](CO)NC(=O)[C@H](C)NC(=O)[C@H](C)NC1=O)C(C)C` [QLPFVAGVACEMCQCVYCAASKKC], for which the MIC is 2.23 µM (≈ 5.7 µg/mL) in [2], 4.47 µM (≈ 11.4 µg/mL) in [6], 2.23 µM (≈ 5.7 µg/mL) in test [7] and 4.47 µM (≈ 11.4 µg/mL) in test [8].

As for `CC[C@H](C)[C@H](NC(=O)[C@@H](N)C(C)C)C(=O)N1CCC[C@H]1C(=O)N[C@@H](Cc1ccccc1)C(=O)N[C@H](C(=O)N[C@@H](C)C(=O)N[C@@H](CO)C(=O)N[C@H](C(=O)N[C@@H](C)C(=O)N[C@@H](C)C(=O)N[C@@H](CCC(=O)O)C(=O)N[C@@H](CCSC)C(=O)N[C@@H](CCSC)C(=O)N[C@@H](CCC(N)=O)C(=O)N[C@@H](Cc1cnc[nH]1)C(=O)N[C@H](C(=O)N[C@@H](Cc1ccc(O)cc1)C(=O)N[C@H]1CSSC[C@@H](C(=O)O)NC(=O)[C@H](CCCCN)NC(=O)[C@H](CCCCN)NC(=O)[C@H](CO)NC(=O)[C@H](C)NC(=O)[C@H](C)NC1=O)C(C)C)C(C)C)C(C)C` [VIPFVASVAAEMMQHVYCAASKKC], the MIC worked out at 4.02 µM (≈ 10.4 µg/mL) in test [2]; 8.05 µM (≈ 20.8 µg/mL) in test [6]; 2.01 µM (≈ 5.2 µg/mL) in test [7]; 1.35 µM (≈ 3.5 µg/mL) against Escherichia coli; 4.02 µM (≈ 10.4 µg/mL) in test [8]; 0.677 µM (≈ 1.75 µg/mL) against Candida albicans. For the same molecule, the MIC was found to be 0.677 µM (≈ 1.75 µg/mL) in the test with Bacillus subtilis and 1.35 µM (≈ 3.5 µg/mL) in the test on Staphylococcus aureus.
